Values quoted from earlier work in patent US10232018B2, “ACTH for treatment of acute respiratory distress syndrome” (MALLINCKRODT ARD IP LIMITED, priority 2013, dated 2019).

Assays:
[1] = Baumann and Felber, 1976

Substance | partial agonist activity in adrenal stimulation assays in comparison to ACTH1-24 as control (adrenal stimulation) [%] | duration of action compared with 1-24 [1]
ACTH1-23: ACTH fragment 1-23, partial agonist in Hofmann et al. (1970) (SYSMEHFRWGKPVGKKRRPVKVY; Corticotropin; UniProt P01189 138-160, looked up, fragment) | 91 | –
human 1-39: human ACTH 1-39 (SYSMEHFRWGKPVGKKRRPVKVYPNGAEDESAEAFPLEF; Corticotropin; UniProt P01189 138-176, looked up) | – | longer duration of action
